Reference: the Kinase Knowledgebase extract (Sharma et al. 2016)

Each molecule was assayed against EGFR (human) (UniProt P00533). Details: a431.
Chain of EGFR (human) (P00533 whole entry, looked up): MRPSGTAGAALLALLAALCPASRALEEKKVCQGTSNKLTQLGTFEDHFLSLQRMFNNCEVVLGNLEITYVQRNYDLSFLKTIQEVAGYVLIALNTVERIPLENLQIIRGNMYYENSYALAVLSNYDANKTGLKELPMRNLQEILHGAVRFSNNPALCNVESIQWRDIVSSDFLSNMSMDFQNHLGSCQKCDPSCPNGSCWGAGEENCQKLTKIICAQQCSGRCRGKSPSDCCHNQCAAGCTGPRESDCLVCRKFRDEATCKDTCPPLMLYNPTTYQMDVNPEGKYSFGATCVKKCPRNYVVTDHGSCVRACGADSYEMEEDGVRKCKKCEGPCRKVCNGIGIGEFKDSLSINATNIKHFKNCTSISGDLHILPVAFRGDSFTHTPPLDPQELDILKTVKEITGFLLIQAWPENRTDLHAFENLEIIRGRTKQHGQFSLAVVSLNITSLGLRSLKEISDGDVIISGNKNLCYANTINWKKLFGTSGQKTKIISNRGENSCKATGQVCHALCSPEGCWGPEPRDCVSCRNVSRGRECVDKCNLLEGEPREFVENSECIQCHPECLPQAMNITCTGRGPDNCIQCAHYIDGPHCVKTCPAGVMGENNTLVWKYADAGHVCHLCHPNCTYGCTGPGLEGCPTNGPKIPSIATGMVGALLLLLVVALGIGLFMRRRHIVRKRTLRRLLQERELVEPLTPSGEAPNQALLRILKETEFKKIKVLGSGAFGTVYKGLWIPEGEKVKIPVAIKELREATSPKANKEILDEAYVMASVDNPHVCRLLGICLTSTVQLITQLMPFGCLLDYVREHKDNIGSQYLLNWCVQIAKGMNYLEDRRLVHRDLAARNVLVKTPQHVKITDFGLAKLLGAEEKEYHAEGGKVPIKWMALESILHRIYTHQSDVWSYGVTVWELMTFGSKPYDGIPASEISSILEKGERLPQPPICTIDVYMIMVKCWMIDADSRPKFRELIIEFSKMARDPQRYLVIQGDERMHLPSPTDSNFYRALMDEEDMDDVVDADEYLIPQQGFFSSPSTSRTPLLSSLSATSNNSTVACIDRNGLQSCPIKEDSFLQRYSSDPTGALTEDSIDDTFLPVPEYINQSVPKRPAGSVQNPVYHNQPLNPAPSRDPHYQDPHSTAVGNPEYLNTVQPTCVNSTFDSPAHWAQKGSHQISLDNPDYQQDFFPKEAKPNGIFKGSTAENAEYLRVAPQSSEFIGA

| Compound | IC50 |
| --- | --- |
| CN1CCN(C(=O)Cc2ccc3c(c2)sc2ncnc(Nc4ccc(OCc5cccc(F)c5)c(Cl)c4)c23)CC1 | ≤ 5 µM |
| CN1CCN(C(=O)Cc2ccc3c(c2)sc2ncnc(Nc4ccc5c(cnn5Cc5cccc(F)c5)c4)c23)CC1 | ≤ 5 µM |
| COCCN(CCOC)CCc1ccc2c(c1)sc1ncnc(Nc3ccc(OCc4cccc(F)c4)c(Cl)c3)c12 | ≤ 5 µM |
| CN(C)[C@H]1CCN(C(=O)Cc2ccc3c(c2)sc2ncnc(Nc4ccc(OCc5cscn5)c(Cl)c4)c23)C1 | ≤ 5 µM |
| O=C(Cc1ccc2c(c1)sc1ncnc(Nc3ccc(OCc4ccccn4)c(Cl)c3)c12)N1CCC[C@@H]1CO | ≤ 5 µM |
| OCCc1ccc2c(c1)sc1ncnc(Nc3ccc4c(cnn4Cc4cccc(F)c4)c3)c12 | ≤ 5 µM |
| OC[C@H](O)c1ccc2c(c1)sc1ncnc(Nc3ccc4c(cnn4Cc4cccc(F)c4)c3)c12 | ≤ 5 µM |
| COCCNCCc1ccc2c(c1)sc1ncnc(Nc3ccc(OCc4ccccn4)c(Cl)c3)c12 | ≤ 5 µM |
| CN1CCN(c2ccc3c(c2)sc2ncnc(Nc4ccc(OCc5ccccn5)c(Cl)c4)c23)CC1 | ≤ 5 µM |
| O=C(Cc1ccc2c(c1)sc1ncnc(Nc3ccc(OCc4cccc(F)c4)c(Cl)c3)c12)NCCOCCO | ≤ 5 µM |
| OC[C@H](O)[C@@H](O)c1ccc2c(c1)sc1ncnc(Nc3ccc(OCc4cccc(F)c4)c(Cl)c3)c12 | ≤ 5 µM |
| CN(C)[C@@H]1CCN(C(=O)Cc2ccc3c(c2)sc2ncnc(Nc4ccc(OCc5cscn5)c(Cl)c4)c23)C1 | ≤ 5 µM |
| Fc1cccc(COc2ccc(Nc3ncnc4sc5cc(CCN6CCCC6)ccc5c34)cc2Cl)c1 | ≤ 5 µM |
| Fc1cccc(Cn2ncc3cc(Nc4ncnc5sc6cc(N7CCNCC7)ccc6c45)ccc32)c1 | ≤ 5 µM |
| CN(C)[C@H]1CCN(C(=O)Cc2ccc3c(c2)sc2ncnc(Nc4ccc5c(cnn5Cc5cccc(F)c5)c4)c23)C1 | ≤ 5 µM |
| COCCNCCc1ccc2c(c1)sc1ncnc(Nc3ccc(OCc4cccc(F)c4)c(Cl)c3)c12 | ≤ 5 µM |
| CN(C)CCNC(=O)Cc1ccc2c(c1)sc1ncnc(Nc3ccc4c(cnn4Cc4cccc(F)c4)c3)c12 | ≤ 5 µM |
| O=C(Cc1ccc2c(c1)sc1ncnc(Nc3ccc(OCc4cccc(F)c4)c(Cl)c3)c12)N1CCNCC1 | ≤ 5 µM |
| CN1CCN(C(=O)Cc2ccc3c(c2)sc2ncnc(Nc4ccc(OCc5cscn5)c(Cl)c4)c23)CC1 | ≤ 5 µM |
| CS(=O)(=O)CCNCCc1ccc2c(c1)sc1ncnc(Nc3ccc(OCc4ccccn4)c(Cl)c3)c12 | ≤ 5 µM |

| Compound | IC50 |
| --- | --- |
| Fc1cccc(COc2ccc(Nc3ncnc4sc5cc(OCCCN6CCOCC6)ccc5c34)cc2Cl)c1 | ≤ 5 µM |
| OC[C@@H](O)[C@H](O)c1ccc2c(c1)sc1ncnc(Nc3ccc(OCc4cccc(F)c4)c(Cl)c3)c12 | ≤ 5 µM |
| OC[C@H](O)COc1ccc2c(c1)sc1ncnc(Nc3ccc(OCc4ccccn4)c(Cl)c3)c12 | ≤ 5 µM |
| COCCN1CCN(CCc2ccc3c(c2)sc2ncnc(Nc4ccc(OCc5cccc(F)c5)c(Cl)c4)c23)CC1 | ≤ 5 µM |
| OCC(O)C(O)c1ccc2c(c1)sc1ncnc(Nc3ccc(OCc4cccc(F)c4)c(Cl)c3)c12 (centres undefined) | ≤ 5 µM |
| OCCc1ccc2c(c1)sc1ncnc(Nc3ccc(OCc4ccccn4)c(Cl)c3)c12 | ≤ 5 µM |
| O=C(Cc1ccc2c(c1)sc1ncnc(Nc3ccc(OCc4cccc(F)c4)c(Cl)c3)c12)NCCN1CCOCC1 | ≤ 5 µM |
| Fc1cccc(COc2ccc(Nc3ncnc4sc5cc(CCBr)ccc5c34)cc2Cl)c1 | ≤ 5 µM |
| O=C(Cc1ccc2c(c1)sc1ncnc(Nc3ccc4c(cnn4Cc4cccc(F)c4)c3)c12)NC1CN2CCC1CC2 (centres undefined) | ≤ 5 µM |
| CO[C@H]1CCN(CCc2ccc3c(c2)sc2ncnc(Nc4ccc(OCc5cccc(F)c5)c(Cl)c4)c23)C1 | ≤ 5 µM |
| CCN1CCN(C(=O)/C=C/c2ccc3c(c2)sc2ncnc(Nc4ccc(OCc5cccc(F)c5)c(Cl)c4)c23)CC1 | ≤ 5 µM |
| COCCN(CCOC)C(=O)Cc1ccc2c(c1)sc1ncnc(Nc3ccc(OCc4ccccn4)c(Cl)c3)c12 | ≤ 5 µM |
| CN(C)[C@H]1CCN(CCc2ccc3c(c2)sc2ncnc(Nc4ccc(OCc5cccc(F)c5)c(Cl)c4)c23)C1 | ≤ 5 µM |
| Fc1cccc(COc2ccc(Nc3ncnc4sc5cc(OCCN6CCOCC6)ccc5c34)cc2Cl)c1 | ≤ 5 µM |
| Fc1cccc(COc2ccc(Nc3ncnc4sc5cc(CCN6CCNCC6)ccc5c34)cc2Cl)c1 | ≤ 5 µM |
| O=C(/C=C/c1ccc2c(c1)sc1ncnc(Nc3ccc(OCc4cccc(F)c4)c(Cl)c3)c12)N1CCOCC1 | ≤ 5 µM |
| OCC(CO)c1ccc2c(c1)sc1ncnc(Nc3ccc(OCc4cccc(F)c4)c(Cl)c3)c12 | ≤ 5 µM |
| CCNCCc1ccc2c(c1)sc1ncnc(Nc3ccc(OCc4ccccn4)c(Cl)c3)c12 | ≤ 5 µM |
| OCCNCCc1ccc2c(c1)sc1ncnc(Nc3ccc(OCc4cccc(F)c4)c(Cl)c3)c12 | ≤ 5 µM |

Further lines, results first:

| IC50 | Compound |
| --- | --- |
| ≤ 5 µM | CN1CCN(CCc2ccc3c(c2)sc2ncnc(Nc4ccc(OCc5cccc(F)c5)c(Cl)c4)c23)CC1 |
| ≤ 5 µM | COC[C@H]1CCCN1CCc1ccc2c(c1)sc1ncnc(Nc3ccc(OCc4cccc(F)c4)c(Cl)c3)c12 |
| ≤ 5 µM | CN1CCN(CCc2ccc3c(c2)sc2ncnc(Nc4ccc5c(cnn5Cc5cccc(F)c5)c4)c23)CC1 |
| ≤ 5 µM | CN1CCN(C(=O)/C=C/c2ccc3c(c2)sc2ncnc(Nc4ccc(OCc5cccc(F)c5)c(Cl)c4)c23)CC1 |
| ≤ 5 µM | Clc1cc(Nc2ncnc3sc4cc(CCBr)ccc4c23)ccc1OCc1ccccn1 |
| ≤ 5 µM | CN1CCN(CCc2ccc3c(c2)sc2ncnc(Nc4ccc(OCc5ccccn5)c(Cl)c4)c23)CC1 |
| ≤ 5 µM | OC[C@@H](O)c1ccc2c(c1)sc1ncnc(Nc3ccc(OCc4cccc(F)c4)c(Cl)c3)c12 |
| ≤ 5 µM | NS(=O)(=O)OCCc1ccc2c(c1)sc1ncnc(Nc3ccc(OCc4ccccn4)c(Cl)c3)c12 |
| ≤ 5 µM | CS(=O)(=O)CCNC(=O)CCc1ccc2c(c1)sc1ncnc(Nc3ccc(OCc4cccc(F)c4)c(Cl)c3)c12 |
| ≤ 5 µM | OCC(O)c1ccc2c(c1)sc1ncnc(Nc3ccc(OCc4cccc(F)c4)c(Cl)c3)c12 (centres undefined) |
| ≤ 5 µM | CS(=O)(=O)CCNC(=O)Cc1ccc2c(c1)sc1ncnc(Nc3ccc4c(cnn4Cc4cccc(F)c4)c3)c12 |
| ≤ 5 µM | OC[C@@H](O)COc1ccc2c(c1)sc1ncnc(Nc3ccc(OCc4cccc(F)c4)c(Cl)c3)c12 |
| ≤ 5 µM | OCC(O)c1ccc2c(c1)sc1ncnc(Nc3ccc4c(cnn4Cc4cccc(F)c4)c3)c12 (centres undefined) |
| ≤ 5 µM | OC[C@H](O)c1ccc2c(c1)sc1ncnc(Nc3ccc(OCc4cccc(F)c4)c(Cl)c3)c12 |
| ≤ 5 µM | Fc1cccc(Cn2ncc3cc(Nc4ncnc5sc6cc(CCN7CCOCC7)ccc6c45)ccc32)c1 |
| ≤ 5 µM | CN(C)[C@H]1CCN(C(=O)/C=C/c2ccc3c(c2)sc2ncnc(Nc4ccc(OCc5cccc(F)c5)c(Cl)c4)c23)C1 |
| ≤ 5 µM | CN(C)[C@H]1CCN(C(=O)CCc2ccc3c(c2)sc2ncnc(Nc4ccc(OCc5cccc(F)c5)c(Cl)c4)c23)C1 |
| ≤ 5 µM | Fc1cccc(COc2ccc(Nc3ncnc4sc5cc(OCCN6CCCC6)ccc5c34)cc2Cl)c1 |
| ≤ 5 µM | OCCc1ccc2c(c1)sc1ncnc(Nc3ccc4c(cnn4Cc4ccccn4)c3)c12 |
| ≤ 5 µM | OC[C@@H](O)c1ccc2c(c1)sc1ncnc(Nc3ccc4c(cnn4Cc4cccc(F)c4)c3)c12 |
| ≤ 5 µM | COC(=O)/C=C/c1ccc2c(c1)sc1ncnc(Nc3ccc(OCc4cccc(F)c4)c(Cl)c3)c12 |
| ≤ 5 µM | OCCN(CCO)CCc1ccc2c(c1)sc1ncnc(Nc3ccc(OCc4cccc(F)c4)c(Cl)c3)c12 |
| ≤ 5 µM | CN(C)CCNC(=O)CCc1ccc2c(c1)sc1ncnc(Nc3ccc(OCc4cccc(F)c4)c(Cl)c3)c12 |
| ≤ 5 µM | O=C(Cc1ccc2c(c1)sc1ncnc(Nc3ccc(OCc4cccc(F)c4)c(Cl)c3)c12)N1CCOCC1 |
| ≤ 5 µM | OCCc1ccc2c(c1)sc1ncnc(Nc3ccc(OCc4cccc(F)c4)c(Cl)c3)c12 |
| ≤ 5 µM | COC[C@@H]1CCCN1C(=O)Cc1ccc2c(c1)sc1ncnc(Nc3ccc(OCc4ccccn4)c(Cl)c3)c12 |
| ≤ 5 µM | OCC(O)c1ccc2c(c1)sc1ncnc(Nc3ccc(OCc4ccccn4)c(Cl)c3)c12 (centres undefined) |
| ≤ 5 µM | OC[C@H](O)COc1ccc2c(c1)sc1ncnc(Nc3ccc(OCc4cccc(F)c4)c(Cl)c3)c12 |
| ≤ 5 µM | Fc1cccc(COc2ccc(Nc3ncnc4sc5cc(CCN6CCCCC6)ccc5c34)cc2Cl)c1 |
| ≤ 5 µM | Fc1cccc(COc2ccc(Nc3ncnc4sc5cc(CCN6CCSCC6)ccc5c34)cc2Cl)c1 |
